Results on three compounds are retold here after US9839627B2, “Methods of treating fragile X associated disorders, ADHD, and autism spectrum disorder” (Neurovance, Inc., priority 2013, dated 2017).

Data set [1] deals with individuals with FXS. As to conditions: reported trials; failures due to aggravation of irritable, moody/perseverative and aggressive behaviors; cited from earlier work.
For data set [2], the target named is T1, monoamine oxidase A (MAO A) (Homo sapiens, UniProt P21397).
T1 sequence (P21397 1-527): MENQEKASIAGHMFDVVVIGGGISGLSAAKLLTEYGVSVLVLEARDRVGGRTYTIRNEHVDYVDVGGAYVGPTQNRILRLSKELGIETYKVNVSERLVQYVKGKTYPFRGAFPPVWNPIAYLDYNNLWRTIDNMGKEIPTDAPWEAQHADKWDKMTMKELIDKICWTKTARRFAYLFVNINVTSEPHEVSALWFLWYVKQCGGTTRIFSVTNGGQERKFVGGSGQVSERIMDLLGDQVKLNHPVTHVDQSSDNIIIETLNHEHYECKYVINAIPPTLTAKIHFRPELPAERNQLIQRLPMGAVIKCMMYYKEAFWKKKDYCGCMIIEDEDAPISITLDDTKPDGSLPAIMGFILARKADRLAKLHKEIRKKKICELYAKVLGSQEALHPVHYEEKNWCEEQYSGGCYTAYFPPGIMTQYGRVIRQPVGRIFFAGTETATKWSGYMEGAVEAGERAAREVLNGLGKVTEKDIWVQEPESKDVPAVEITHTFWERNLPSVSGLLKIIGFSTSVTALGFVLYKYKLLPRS
Nature of the data set: metabolic pathway.

Data set [3] has as its target norepinephrine reuptake (NE) (Homo sapiens, UniProt P23975). The data set can be described thus: norepinephrine reuptake inhibition. As to conditions: unbalanced triple reuptake inhibitor; compared with DA and 5-HT reuptake. Format: biochemical.
In data set [4] the target is dopamine reuptake (DA) (Homo sapiens, UniProt Q01959). The data set can be described thus: dopamine reuptake inhibition. Format: biochemical. As to conditions: fraction of the potency towards NE reuptake.
Sequence of dopamine reuptake (DA) (Q01959 whole entry): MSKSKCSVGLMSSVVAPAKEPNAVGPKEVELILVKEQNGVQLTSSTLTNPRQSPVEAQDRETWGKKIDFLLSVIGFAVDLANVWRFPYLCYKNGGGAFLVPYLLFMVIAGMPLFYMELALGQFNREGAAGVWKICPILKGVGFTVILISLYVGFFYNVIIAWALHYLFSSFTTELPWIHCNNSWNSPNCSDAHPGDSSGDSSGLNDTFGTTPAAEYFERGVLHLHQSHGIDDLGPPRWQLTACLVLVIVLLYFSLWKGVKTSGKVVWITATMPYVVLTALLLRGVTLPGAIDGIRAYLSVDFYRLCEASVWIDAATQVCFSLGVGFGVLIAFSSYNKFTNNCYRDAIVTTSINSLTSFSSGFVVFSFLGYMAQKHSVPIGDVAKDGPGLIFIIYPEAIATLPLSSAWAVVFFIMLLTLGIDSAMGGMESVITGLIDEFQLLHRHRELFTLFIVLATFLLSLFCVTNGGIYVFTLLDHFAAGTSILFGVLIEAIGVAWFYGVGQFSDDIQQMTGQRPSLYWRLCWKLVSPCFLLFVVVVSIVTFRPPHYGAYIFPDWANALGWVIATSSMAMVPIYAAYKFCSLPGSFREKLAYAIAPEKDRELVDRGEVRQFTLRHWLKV
Data set [5] has as its target serotonin reuptake (5-HT) (Homo sapiens, UniProt P31645). The data set can be described thus: serotonin reuptake inhibition. In kind it is biochemical. As to conditions: fraction of the potency towards NE reuptake.

Sequence of norepinephrine reuptake (NE) (P23975 whole entry): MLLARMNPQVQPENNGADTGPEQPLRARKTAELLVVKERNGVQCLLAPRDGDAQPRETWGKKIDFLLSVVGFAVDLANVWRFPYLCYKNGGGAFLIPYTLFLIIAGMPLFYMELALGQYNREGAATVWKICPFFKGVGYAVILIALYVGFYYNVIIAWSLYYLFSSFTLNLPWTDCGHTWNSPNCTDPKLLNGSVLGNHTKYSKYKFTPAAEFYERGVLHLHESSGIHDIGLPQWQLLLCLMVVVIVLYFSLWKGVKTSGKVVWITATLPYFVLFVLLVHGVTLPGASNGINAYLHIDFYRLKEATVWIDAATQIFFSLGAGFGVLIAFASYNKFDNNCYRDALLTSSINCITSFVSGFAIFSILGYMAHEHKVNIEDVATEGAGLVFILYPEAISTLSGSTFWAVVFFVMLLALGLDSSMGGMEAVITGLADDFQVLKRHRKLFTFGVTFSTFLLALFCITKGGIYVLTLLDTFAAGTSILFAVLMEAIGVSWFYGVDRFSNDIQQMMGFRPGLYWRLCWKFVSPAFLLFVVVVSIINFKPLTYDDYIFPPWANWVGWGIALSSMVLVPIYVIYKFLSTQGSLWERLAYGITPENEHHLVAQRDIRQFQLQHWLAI
Sequence of serotonin reuptake (5-HT) (P31645 whole entry): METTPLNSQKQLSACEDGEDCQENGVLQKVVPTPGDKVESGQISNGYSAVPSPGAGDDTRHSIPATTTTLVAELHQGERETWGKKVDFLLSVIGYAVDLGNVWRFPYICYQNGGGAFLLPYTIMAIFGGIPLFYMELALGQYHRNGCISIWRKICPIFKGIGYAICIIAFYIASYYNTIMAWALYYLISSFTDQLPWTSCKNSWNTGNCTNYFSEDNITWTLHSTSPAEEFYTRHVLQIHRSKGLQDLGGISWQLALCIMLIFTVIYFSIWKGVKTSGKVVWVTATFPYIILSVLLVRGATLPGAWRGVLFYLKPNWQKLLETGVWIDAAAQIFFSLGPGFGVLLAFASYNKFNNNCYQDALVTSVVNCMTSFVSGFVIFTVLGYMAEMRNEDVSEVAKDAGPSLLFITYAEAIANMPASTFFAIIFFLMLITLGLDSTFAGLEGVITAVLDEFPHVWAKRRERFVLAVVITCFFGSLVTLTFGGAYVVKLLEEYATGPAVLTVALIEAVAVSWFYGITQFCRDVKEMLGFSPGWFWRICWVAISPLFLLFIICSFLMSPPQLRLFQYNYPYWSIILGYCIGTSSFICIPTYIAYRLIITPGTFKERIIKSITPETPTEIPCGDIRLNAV

With `O=C1CCc2ccc(OCCCCN3CCN(c4cccc(Cl)c4Cl)CC3)cc2N1` [Aripiprazole], the “outcome of treatment in individuals with FXS” value in data set [1] is “some individuals with FXS failed treatment”.

As to `CNCC[C@@H](Oc1ccccc1C)c1ccccc1` [atomoxetine], in data set [1], the “outcome of treatment in individuals with FXS” value is given as “unsuccessful”.

For the compound `c1ccc2cc([C@]34CNC[C@H]3C4)ccc2c1` [(1R,5S)-1-(naphthalen-2-yl)-3-azabicyclo[3.1.0]hexane], the “primary route of metabolism” value in data set [2] is “primarily metabolized by monoamine oxidase A (MAO A)”. Also, in data set [3], the “relative potency towards norepinephrine reuptake” value is recorded as “most potency”. Moreover, the “potency towards dopamine reuptake relative to norepinephrine reuptake” value in data set [4] is “one-sixth”. Besides, the “potency towards serotonin reuptake relative to norepinephrine reuptake” value in data set [5] was “one-fourteenth”.
